The results in this text go back to patent USPP13279P2, “Mint plant named ‘Saksham’” (Council of Scientific and Industrial Research, priority 2000, dated 2002).

This data set has as its system in vitro regenerates (shoots) of Mentha arvensis ‘Himalaya’ somaclones. The data set is described as follows: Menthol tolerance/toxicity test of in vitro regenerates in MS based medium containing menthol. It is filed as cell-based. The source says: The applicants used the plant ‘Himalaya’ (U.S. Plant Pat. No. 10,935), an elite mint genotype for large scale screening of in vitro raised clones (Khanuja S P S, Shasany A K, Dhawan S, Sushil Kumar, 1998, Rapid procedure for isolating somaclones of altered genotypes in Mentha arvensis. J medicinal and Aromatic Plant Sciences 20:359-361) to select clones tolerant to high menthol concentration in the medium (An efficient in vitro selection procedure for large scale screening of mint clones to isolate high menthol genotypes. Khanuja et al, Procedure patent pending, 1999).
While testing the tolerance of in vitro regenerates in presence of menthol in the MS based medium (Murashige T and Skoog F, 1962, A revised medium for rapid growth and bioassay with tobacco tissue cultures; Physiol. Planta. 15 473-497), the initial toxicity symptoms were first observed at the menthol concentration of 40 μg ml^−1 menthol after 7 days. […] Here it was immediate chlorophyll loss and irreversible wilting of the shoots, non-rescuable even by culturing these regenerates in normal medium without menthol. Lowest survival was detected at a concentration of 70 μg ml^−1, where only 1% shoots could survive. […] Ultimately 36, clones were selected for tolerance at 70 μg ml^−1 menthol by screening about 2950 clones. These were transferred to field for evaluation in a plant test area at Lucknow, India. […]

Each structure is given as a SMILES string.

For `CC1CCC(C(C)C)C(O)C1` (centres unmarked) [menthol], for the setting “clone GRB-30 (‘Saksham’), retesting in vitro”, the “menthol concentration tolerated in the culture medium” value is 80 µg/mL. Moreover, where the note is “menthol 70 μg ml^−1 in the medium”, the “shoots that could survive (lowest survival)” value is 1%.
